For 18 molecules, IC50 results are on record in US20230092890A1, “1, 3, 4-Oxadiazole derivative compounds as histone deacetylase 6 inhibitor, and the pharmaceutical composition comprising the same” (Chong Kun Dang Pharmaceutical Corp., priority 2019, published 2023).

One experiment addresses T1, HDAC6 human recombinant (Homo sapiens, UniProt Q9UBN7).
T1 construct: purchased Calbiochem 382180
T1 sequence (Q9UBN7 1-1215): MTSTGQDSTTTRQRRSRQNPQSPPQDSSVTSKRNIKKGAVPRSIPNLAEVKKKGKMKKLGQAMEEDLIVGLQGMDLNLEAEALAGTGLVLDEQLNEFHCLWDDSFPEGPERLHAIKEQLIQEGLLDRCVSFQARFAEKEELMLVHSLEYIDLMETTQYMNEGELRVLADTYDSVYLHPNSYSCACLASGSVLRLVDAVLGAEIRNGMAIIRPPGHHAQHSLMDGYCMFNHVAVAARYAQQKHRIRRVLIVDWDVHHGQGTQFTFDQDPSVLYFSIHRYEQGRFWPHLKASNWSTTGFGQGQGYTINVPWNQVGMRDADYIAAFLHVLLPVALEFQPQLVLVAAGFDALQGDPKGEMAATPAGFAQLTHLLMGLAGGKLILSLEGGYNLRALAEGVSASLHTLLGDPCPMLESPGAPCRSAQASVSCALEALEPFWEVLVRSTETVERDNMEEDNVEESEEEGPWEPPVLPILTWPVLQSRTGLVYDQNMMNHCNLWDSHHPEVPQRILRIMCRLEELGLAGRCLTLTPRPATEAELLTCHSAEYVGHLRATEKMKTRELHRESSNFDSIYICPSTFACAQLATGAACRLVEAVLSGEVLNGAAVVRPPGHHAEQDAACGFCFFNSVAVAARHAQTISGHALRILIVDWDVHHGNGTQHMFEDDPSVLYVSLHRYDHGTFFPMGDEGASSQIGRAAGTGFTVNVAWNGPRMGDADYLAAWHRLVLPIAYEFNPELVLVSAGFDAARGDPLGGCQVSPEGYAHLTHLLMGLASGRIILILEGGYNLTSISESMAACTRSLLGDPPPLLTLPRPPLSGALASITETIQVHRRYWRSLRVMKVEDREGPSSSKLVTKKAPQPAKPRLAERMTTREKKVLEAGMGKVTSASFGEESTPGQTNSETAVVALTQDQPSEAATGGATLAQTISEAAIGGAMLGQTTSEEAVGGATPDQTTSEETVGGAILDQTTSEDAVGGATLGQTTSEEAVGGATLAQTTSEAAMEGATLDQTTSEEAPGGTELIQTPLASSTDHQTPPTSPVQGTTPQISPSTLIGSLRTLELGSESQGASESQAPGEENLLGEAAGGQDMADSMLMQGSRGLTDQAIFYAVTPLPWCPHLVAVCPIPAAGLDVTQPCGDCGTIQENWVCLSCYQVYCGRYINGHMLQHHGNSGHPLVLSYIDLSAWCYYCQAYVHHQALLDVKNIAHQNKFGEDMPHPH
Description: HDAC enzyme activity inhibition (in vitro), HDAC6 assay. It counts as biochemical. The settings on record: samples at 0.1, 1, 10, 100 and 1000 nM; 37° C. 60 minutes; fluorescence Ex 390, Em 460; read-out: HDAC6 IC50. As to the method:
A HDAC enzyme inhibitory capacity of a test material was measured by using HDAC1 Fluorimetric Drug Discovery Assay Kit (Enzolifesciences: BML-AK511) and HDAC6 human recombinant (Calbiochem: 382180). For a HDAC1 assay, samples were treated at a concentration of 100, 1000 and 10000 nM. […] After the above sample treatment, a reaction was continued at 37° C. for 60 minutes, then treated with a developer, and then subjected to a reaction at 37° C. for 30 minutes, after which fluorescence intensity (Ex 390, Em 460) was measured by using FlexStatin3 (Molecular device).

In the next experiment the target is T2, HDAC1 (Homo sapiens, UniProt Q13547).
T2 construct: purchased Enzolifesciences BML-AK511
T2 sequence (Q13547 whole entry): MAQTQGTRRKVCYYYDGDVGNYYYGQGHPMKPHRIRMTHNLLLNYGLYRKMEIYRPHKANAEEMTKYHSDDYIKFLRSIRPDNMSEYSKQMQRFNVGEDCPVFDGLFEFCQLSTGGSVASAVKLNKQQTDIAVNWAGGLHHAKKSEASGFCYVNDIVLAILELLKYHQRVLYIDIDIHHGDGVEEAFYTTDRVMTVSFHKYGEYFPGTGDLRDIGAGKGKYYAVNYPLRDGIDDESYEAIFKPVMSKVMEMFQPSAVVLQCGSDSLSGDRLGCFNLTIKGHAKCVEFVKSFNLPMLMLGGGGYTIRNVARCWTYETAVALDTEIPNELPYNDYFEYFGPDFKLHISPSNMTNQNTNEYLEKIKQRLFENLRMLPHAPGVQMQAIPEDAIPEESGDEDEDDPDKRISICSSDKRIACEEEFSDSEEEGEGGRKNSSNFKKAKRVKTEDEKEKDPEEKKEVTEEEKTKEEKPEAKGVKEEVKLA
Description: HDAC enzyme activity inhibition (in vitro), HDAC1 Fluorimetric Drug Discovery Assay Kit. The settings on record: samples at 100, 1000 and 10000 nM; 37° C. 60 minutes; fluorescence Ex 390, Em 460; read-out: HDAC1 IC50. Type of experiment: biochemical. As to the method: <Experimental Example 1> Identification of HDAC Enzyme Activity Inhibition (In Vitro)
A selective HDAC6 inhibitor is important for selectivity of HDAC1 inhibition, which is a cause of side effects, and thus HDAC1/6 enzyme selectivity and cell selectivity (HDAC1: histone acetylation/HDAC6: tubulin acetylation) were identified.
A HDAC enzyme inhibitory capacity of a test material was measured by using HDAC1 Fluorimetric Drug Discovery Assay Kit (Enzolifesciences: BML-AK511) and HDAC6 human recombinant (Calbiochem: 382180). For a HDAC1 assay, samples were treated at a concentration of 100, 1000 and 10000 nM. For a HDAC6 assay, samples were treated at a concentration of 0.1, 1, 10, 100 and 1000 nM. After the above sample treatment, a reaction was continued at 37° C. for 60 minutes, then treated with a developer, and then subjected to a reaction at 37° C. for 30 minutes, after which fluorescence intensity (Ex 390, Em 460) was measured by using FlexStatin3 (Molecular device).

Bounds are passed on as bounds.

In general, IC50 refers to the concentration needed to halve the response being measured. For the molecule `CC(C)N1CCC(n2c(=O)n(Cc3ccc(-c4nnc(C(F)F)o4)cc3F)c3ccccc32)CC1` [Compound 15, 1-(4-(5-(difluoromethyl)-1,3,4-oxadiazole-2-yl)-2-fluorobenzyl)-3-(1-isopropylpiperidine-4-yl)-1,3-dihydro-2H-benzo[d]imidazole-2-one], the IC50 was 193 nM on HDAC6 human recombinant and greater than 10000 nM on HDAC1.

In the case of `O=c1n(Cc2ccc(-c3nnc(C(F)F)o3)cc2F)c2ccccc2n1C1CCN(C2COC2)CC1` [Compound 16, 1-(4-(5-(difluoromethyl)-1,3,4-oxadiazole-2-yl)-2-fluorobenzyl)-3-(1-(oxetan-3-yl)piperidine-4-yl)-1,3-dihydro-2H-benzo[d]imidazole-2-one], the IC50 at HDAC6 human recombinant is 239 nM; at HDAC1 it was greater than 10000 nM.

In the case of `CC(=O)N1CCC(n2c(=O)n(Cc3ccc(-c4nnc(C(F)F)o4)cc3F)c3ccccc32)CC1` [Compound 17, 1-(1-acetylpiperidine-4-yl)-3-(4-(5-(difluoromethyl)-1,3,4-oxadiazole-2-yl)-2-fluorobenzyl)-1,3-dihydro-2H-benzo[d]imidazole-2-one], the IC50 at HDAC6 human recombinant was 214 nM; on HDAC1, greater than 10000 nM.

Consider `CS(=O)(=O)N1CCC(n2c(=O)n(Cc3ccc(-c4nnc(C(F)F)o4)cc3F)c3ccccc32)CC1` [Compound 18, 1-(4-(5-(difluoromethyl)-1,3,4-oxadiazole-2-yl)-2-fluorobenzyl)-3-(1-(methylsulfonyl)piperidine-4-yl)-1,3-dihydro-2H-benzo[d]imidazole-2-one], for which the IC50 was 267 nM on HDAC6 human recombinant and greater than 10000 nM on HDAC1.

Take `O=c1n(Cc2ccc(-c3nnc(C(F)F)o3)cc2F)c2ccccc2n1C1CCN(Cc2cccc3cc[nH]c23)CC1` [Compound 19, 1-(1-((1H-indole-7-yl)methyl)piperidine-4-yl)-3-(4-(5-(difluoromethyl)-1,3,4-oxadiazole-2-yl)-2-fluorobenzyl)-1,3-dihydro-2H-benzo[d]imidazole-2-one]: the IC50 at HDAC6 human recombinant was 2420 nM; on HDAC1 it was greater than 10000 nM.

Take `CN1CCC(n2c(=O)n(Cc3ccc(-c4nnc(C(F)F)o4)cc3F)c3ccccc32)C1` (stereo not drawn) [Compound 20, 1-(4-(5-(difluoromethyl)-1,3,4-oxadiazole-2-yl)-2-fluorobenzyl)-3-(1-methylpyrrolidine-3-yl)-1,3-dihydro-2H-benzo[d]imidazole-2-one]: the IC50 on HDAC6 human recombinant is 285 nM; on HDAC1, greater than 10000 nM.

As to `O=c1n(Cc2ccc(-c3nnc(C(F)F)o3)cc2F)c2ccccc2n1C1CCN(C2COC2)C1` (stereo not drawn) [Compound 21, 1-(4-(5-(difluoromethyl)-1,3,4-oxadiazole-2-yl)-2-fluorobenzyl)-3-(1-(oxetan-3-yl)pyrrolidine-3-yl)-1,3-dihydro-2H-benzo[d]imidazole-2-one], the IC50 on HDAC6 human recombinant is 299 nM; on HDAC1, greater than 10000 nM.

Turning to `CN1CC(n2c(=O)n(Cc3ccc(-c4nnc(C(F)F)o4)cc3F)c3ccccc32)C1` [Compound 22, 1-(4-(5-(difluoromethyl)-1,3,4-oxadiazole-2-yl)-2-fluorobenzyl)-3-(1-methylazetidine-3-yl)-1,3-dihydro-2H-benzo[d]imidazole-2-one], the results for the IC50 on HDAC6 human recombinant and on HDAC1 were 109 nM and greater than 10000 nM, respectively.

As for `O=c1n(Cc2ccc(-c3nnc(C(F)F)o3)cc2F)c2ccccc2n1C1CN(C2COC2)C1` [Compound 23, 1-(4-(5-(difluoromethyl)-1,3,4-oxadiazole-2-yl)-2-fluorobenzyl)-3-(1-(oxetan-3-yl)azetidine-3-yl)-1,3-dihydro-2H-benzo[d]imidazole-2-one], the values for the 50% inhibitory concentration (IC50) at HDAC6 human recombinant and at HDAC1 were 241 nM and greater than 10000 nM, respectively.

In the case of `O=c1n(CCN2CC3(COC3)C2)c2ccccc2n1Cc1ccc(-c2nnc(C(F)F)o2)cc1F` [Compound 24], the figures for the IC50 on HDAC6 human recombinant and on HDAC1 were 137 nM and greater than 10000 nM, respectively.

Consider `O=c1n(CCN2CC3(COC3)C2)c2ccccc2n1Cc1ccc(-c2nnc(C(F)F)o2)cn1` [Compound 25, 1-(2-(2-oxa-6-azaspiro[3.3]heptane-6-yl)ethyl)-3-((5-(5-(difluoromethyl)-1,3,4-oxadiazole-2-yl)pyridine-2-yl)methyl)-1,3-dihydro-2H-benzo[d]imidazole-2-one], for which the IC50 on HDAC6 human recombinant was 84 nM; on HDAC1 it was greater than 10000 nM.

In the case of `O=c1n(CCN2CC3(COC3)C2)c2ccccc2n1Cc1ccc(-c2nnc(C(F)F)o2)cc1` [Compound 26, 1-(2-(2-oxa-6-azaspiro[3.3]heptane-6-yl)ethyl)-3-(4-(5-(difluoromethyl)-1,3,4-oxadiazole-2-yl)benzyl)-1,3-dihydro-2H-benzo[d]imidazole-2-one], the IC50 on HDAC6 human recombinant was 209 nM; on HDAC1, greater than 10000 nM.

With `O=c1n(Cc2ccc(-c3nnc(C(F)F)o3)cc2F)c2ccccc2n1C1CC2(COC2)C1` [Compound 27, 1-(4-(5-(difluoromethyl)-1,3,4-oxadiazole-2-yl)-2-fluorobenzyl)-3-(2-oxaspiro[3.3]heptane-6-yl)-1,3-dihydro-2H-benzo[d]imidazole-2-one], the IC50 at HDAC6 human recombinant is 110 nM; at HDAC1, greater than 10000 nM.

Turning to `O=c1n(Cc2ccc(-c3nnc(C(F)F)o3)cn2)c2ccccc2n1C1CC2(COC2)C1` [Compound 28, 1-((5-(5-(difluoromethyl)-1,3,4-oxadiazole-2-yl)pyridine-2-yl)methyl)-3-(2-oxaspiro[3.3]heptane-6-yl)-1,3-dihydro-2H-benzo[d]imidazole-2-one], the IC50 at HDAC6 human recombinant is 64 nM; at HDAC1, greater than 10000 nM.

With `O=c1n(Cc2ccc(-c3nnc(C(F)F)o3)cc2)c2ccccc2n1C1CC2(COC2)C1` [Compound 29, 1-(4-(5-(difluoromethyl)-1,3,4-oxadiazole-2-yl)benzyl)-3-(2-oxaspiro[3.3]heptane-6-yl)-1,3-dihydro-2H-benzo[d]imidazole-2-one], the values for the IC50 at HDAC6 human recombinant and at HDAC1 were 210 nM and greater than 10000 nM, respectively.

As for `COCCN1Cc2ccccc2N(Cc2ccc(-c3nnc(C(F)F)o3)cc2)C1=O` [Compound 30, 1-(4-(5-(difluoromethyl)-1,3,4-oxadiazole-2-yl)benzyl)-3-(2-methoxyethyl)-3,4-dihydro quinazoline-2(1H)-one], the IC50 was 444 nM on HDAC6 human recombinant and greater than 10000 nM at HDAC1.

Turning to `COCCN1Cc2ccccc2N(Cc2ccc(-c3nnc(C(F)F)o3)cn2)C1=O` [Compound 31, 1-((5-(5-(difluoromethyl)-1,3,4-oxadiazole-2-yl)pyridine-2-yl)methyl)-3-(2-methoxyethyl)-3,4-dihydroquinazoline-2(1H)-one], the 50% inhibitory concentration (IC50) at HDAC6 human recombinant was 108 nM; on HDAC1, greater than 10000 nM.

Turning to `CN1CC(N2Cc3ccccc3N(Cc3ccc(-c4nnc(C(F)F)o4)cc3F)C2=O)C1` [Compound 32, 1-(4-(5-(difluoromethyl)-1,3,4-oxadiazole-2-yl)-2-fluorobenzyl)-3-(1-methylazetidine-3-yl)-3,4-dihydroquinazoline-2(1H)-one], the IC50 at HDAC6 human recombinant was 228 nM; at HDAC1, greater than 10000 nM.
